Reference: patent US20260191968A1, “PROTAC DEGRADERS OF MLLT1 AND/OR MLLT3” (DARK BLUE THERAPEUTICS LTD, priority 2024, published 2026)

Assays:
MV4-11 cells = assay: MV4-11 cellular proliferative assay, Assay Format B (CTG 2.0, 168 h); assay type: cell-based; conditions: Homo sapiens, 168 h (7 days), CTG 2.0, read-out: IC50 (MV4-11 cellular proliferative assay, Assay format B)
In short: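 MV4-11 cells seeded overnight in IMDM + 10% FBS, then exposed to 10-point, 3-fold dilutions from 1 uM or 100 nM top concentration (0.3% DMSO final) for 168 h at 37 °C. CTG 2.0 luminescence read; % viability vs DMSO control fitted by four-parameter logistic regression.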

MLLT1 = molecular target: T1, MLLT1 (Homo sapiens, UniProt Q03111); assay: MLLT1 degradation assay in MV4-11 cells (JESS chemiluminescent detection), three concentrations, 24 h; assay type: cell-based; conditions: with respect to DMSO control
T1 construct: host or cells: MV4-11
T1 sequence (Q03111 1-559): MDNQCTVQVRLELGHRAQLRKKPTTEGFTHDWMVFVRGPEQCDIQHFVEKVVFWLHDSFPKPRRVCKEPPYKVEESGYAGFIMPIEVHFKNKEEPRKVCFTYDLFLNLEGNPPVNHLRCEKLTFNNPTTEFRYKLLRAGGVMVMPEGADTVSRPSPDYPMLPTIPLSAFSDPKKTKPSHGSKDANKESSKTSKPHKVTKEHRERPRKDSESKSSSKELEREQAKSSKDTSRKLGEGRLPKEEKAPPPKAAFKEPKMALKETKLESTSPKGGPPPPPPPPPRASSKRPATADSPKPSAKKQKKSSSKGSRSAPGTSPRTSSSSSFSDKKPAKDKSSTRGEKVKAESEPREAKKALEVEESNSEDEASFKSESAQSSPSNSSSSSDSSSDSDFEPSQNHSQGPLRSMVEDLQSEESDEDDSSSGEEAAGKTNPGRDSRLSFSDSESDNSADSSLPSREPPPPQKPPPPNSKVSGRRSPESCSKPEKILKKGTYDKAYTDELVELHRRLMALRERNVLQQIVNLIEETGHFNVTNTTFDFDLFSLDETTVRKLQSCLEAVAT
In short: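 MV4-11 cells treated 24 h at 37° C, 5% CO2 with 1000, 100 and 10 nM compound (0.1% DMSO final). MLLT1 quantified by automated capillary chemiluminescent immunodetection; band peak area expressed as % degradation relative to DMSO control.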

SMILES	IC50 (MV4-11 cells)	MLLT1% Degradation @ 0.01 μM (MLLT1)	MLLT1% Degradation @ 0.1 μM (MLLT1)	MLLT1% Degradation @ 1 μM (MLLT1)
CN1CCC[C@@H]1c1cc2cnc(NC(=O)c3ccc(CN4CCN(CC5CCN(c6cccc7c6CN(C6CCC(=O)NC6=O)C7=O)CC5)CC4)cc3)cc2[nH]1 (stereo partly drawn) [Example 194, 4-((4-((1-(2-(2,6-dioxopiperidin-3-yl)-1-oxoisoindolin-4-yl)piperidin-4-yl)methyl)piperazin-1-yl)methyl)-N-(2-((R)-1-methylpyrrolidin-2-yl)-1H-pyrrolo[3,2-c]pyridin-6-yl)benzamide]	≤ 100 nM	B (Category B: 50% ≤ B < 75% degradation)	A (Category A: A ≥ 75% degradation)	A (Category A: A ≥ 75% degradation)
CN1CCC[C@@H]1c1cc2cnc(NC(=O)c3ccc(N4CCC(OC=C=Cc5cccc6c5CN(C5CCC(=O)NC5=O)C6=O)CC4)nc3)cc2[nH]1 (stereo partly drawn) [Example 195, 6-(4-((3-(2-(2,6-dioxopiperidin-3-yl)-1-oxoisoindolin-4-yl)propa-1,2-dien-1-yl)oxy)piperidin-1-yl)-N-(2-((R)-1-methylpyrrolidin-2-yl)-1H-pyrrolo[3,2-c]pyridin-6-yl)nicotinamide]	≤ 100 nM	A (Category A: A ≥ 75% degradation)	B (Category B: 50% ≤ B < 75% degradation)	A (Category A: A ≥ 75% degradation)
CN1CCC[C@@H]1c1cc2cnc(NC(=O)c3ccc(CCCC#Cc4cccc5c4CN(C4CCC(=O)NC4=O)C5=O)cn3)cc2[nH]1 (stereo partly drawn) [Example 197, 5-(5-(2-(2,6-dioxopiperidin-3-yl)-1-oxoisoindolin-4-yl)pent-4-yn-1-yl)-N-(2-((R)-1-methylpyrrolidin-2-yl)-1H-pyrrolo[3,2-c]pyridin-6-yl)picolinamide]	≤ 100 nM	A (Category A: A ≥ 75% degradation)	A (Category A: A ≥ 75% degradation)	A (Category A: A ≥ 75% degradation)
CN1CCC[C@@H]1c1cc2cnc(NC(=O)c3ccc(CCCc4ccc(-c5cccc6c5CN(C5CCC(=O)NC5=O)C6=O)cc4)cc3)cc2[nH]1 (stereo partly drawn) [Example 199, 4-(3-(4-(2-(2,6-dioxopiperidin-3-yl)-1-oxoisoindolin-4-yl)phenyl)propyl)-N-(2-((R)-1-methylpyrrolidin-2-yl)-1H-pyrrolo[3,2-c]pyridin-6-yl)benzamide]	≤ 100 nM	A (Category A: A ≥ 75% degradation)	A (Category A: A ≥ 75% degradation)	A (Category A: A ≥ 75% degradation)
CN1CCC[C@@H]1c1cc2cnc(NC(=O)c3ccc(OCCC4CCN(c5cccc6c5CN(C5CCC(=O)NC5=O)C6=O)CC4)c(F)c3)cc2[nH]1 (stereo partly drawn) [Example 206, 4-(2-(1-(2-(2,6-dioxopiperidin-3-yl)-1-oxoisoindolin-4-yl)piperidin-4-yl)ethoxy)-3-fluoro-N-(2-((R)-1-methylpyrrolidin-2-yl)-1H-pyrrolo[3,2-c]pyridin-6-yl)benzamide]	≤ 100 nM	A (Category A: A ≥ 75% degradation)	A (Category A: A ≥ 75% degradation)	A (Category A: A ≥ 75% degradation)
CN1CCC[C@@H]1c1cc2cnc(NC(=O)c3ccc(OCCc4ccc(-c5cccc6c5CN(C5CCC(=O)NC5=O)C6=O)cc4)cc3F)cc2[nH]1 (stereo partly drawn) [Example 207, 4-(4-(2-(2,6-dioxopiperidin-3-yl)-1-oxoisoindolin-4-yl)phenethoxy)-2-fluoro-N-(2-((R)-1-methylpyrrolidin-2-yl)-1H-pyrrolo[3,2-c]pyridin-6-yl)benzamide]	≤ 100 nM	A (Category A: A ≥ 75% degradation)	A (Category A: A ≥ 75% degradation)	A (Category A: A ≥ 75% degradation)
CN1CCC[C@@H]1c1cc2cnc(NC(=O)c3ccc(-c4cnn(CCCC5CCN(c6cccc7c6C(=O)N(C6CCC(=O)NC6=O)C7=O)CC5)c4)cc3F)cc2[nH]1 (stereo partly drawn) [Example 210, 4-(1-(3-(1-(2-(2,6-dioxopiperidin-3-yl)-1,3-dioxoisoindolin-4-yl)piperidin-4-yl)propyl)-1H-pyrazol-4-yl)-2-fluoro-N-(2-((R)-1-methylpyrrolidin-2-yl)-1H-pyrrolo[3,2-c]pyridin-6-yl)benzamide]	≤ 100 nM	B (Category B: 50% ≤ B < 75% degradation)	A (Category A: A ≥ 75% degradation)	A (Category A: A ≥ 75% degradation)
CN1CCC[C@@H]1c1cc2cnc(NC(=O)c3ccc(OCCCC#Cc4cccc5c4CN(C4CCC(=O)NC4=O)C5=O)cc3F)cc2[nH]1 (stereo partly drawn) [Example 213, 4-((5-(2-(2,6-dioxopiperidin-3-yl)-1-oxoisoindolin-4-yl)pent-4-yn-1-yl)oxy)-2-fluoro-N-(2-((R)-1-methylpyrrolidin-2-yl)-1H-pyrrolo[3,2-c]pyridin-6-yl)benzamide]	≤ 100 nM	A (Category A: A ≥ 75% degradation)	A (Category A: A ≥ 75% degradation)	A (Category A: A ≥ 75% degradation)
CN1CCC[C@@H]1c1cc2cnc(NC(=O)c3ccc(OCCC4CCN(c5cccc6c5CN(C5CCC(=O)NC5=O)C6=O)CC4)cn3)cc2[nH]1 (stereo partly drawn) [Example 216, 5-(2-(1-(2-(2,6-dioxopiperidin-3-yl)-1-oxoisoindolin-4-yl)piperidin-4-yl)ethoxy)-N-(2-((R)-1-methylpyrrolidin-2-yl)-1H-pyrrolo[3,2-c]pyridin-6-yl)picolinamide]	≤ 100 nM	A (Category A: A ≥ 75% degradation)	A (Category A: A ≥ 75% degradation)	A (Category A: A ≥ 75% degradation)
CN1CCC[C@@H]1c1cc2cnc(NC(=O)c3cc(F)c(OCCC4CCN(c5cccc6c5CN(C5CCC(=O)NC5=O)C6=O)CC4)cc3F)cc2[nH]1 (stereo partly drawn) [Example 230, 4-(2-(1-(2-(2,6-dioxopiperidin-3-yl)-1-oxoisoindolin-4-yl)piperidin-4-yl)ethoxy)-2,5-difluoro-N-(2-((R)-1-methylpyrrolidin-2-yl)-1H-pyrrolo[3,2-c]pyridin-6-yl)benzamide]	≤ 100 nM	A (Category A: A ≥ 75% degradation)	A (Category A: A ≥ 75% degradation)	A (Category A: A ≥ 75% degradation)

Continued, values first:

IC50 (MV4-11 cells)	MLLT1% Degradation @ 0.01 μM (MLLT1)	MLLT1% Degradation @ 0.1 μM (MLLT1)	MLLT1% Degradation @ 1 μM (MLLT1)	SMILES
≤ 100 nM	A (Category A: A ≥ 75% degradation)	A (Category A: A ≥ 75% degradation)	A (Category A: A ≥ 75% degradation)	CN1CCC[C@@H]1c1cc2cnc(NC(=O)c3ccc(OCCCC4CCN(c5cccc6c5CN(C5CCC(=O)NC5=O)C6=O)CC4)cc3F)cc2[nH]1 (stereo partly drawn) [Example 209, 4-(3-(1-(2-(2,6-dioxopiperidin-3-yl)-1-oxoisoindolin-4-yl)piperidin-4-yl)propoxy)-2-fluoro-N-(2-((R)-1-methylpyrrolidin-2-yl)-1H-pyrrolo[3,2-c]pyridin-6-yl)benzamide]
≤ 100 nM	A (Category A: A ≥ 75% degradation)	A (Category A: A ≥ 75% degradation)	A (Category A: A ≥ 75% degradation)	CN1CCC[C@@H]1c1cc2cnc(NC(=O)c3ccc(-c4cnn(CCCC5CCN(c6cccc7c6C(=O)N(C6CCC(=O)NC6=O)C7=O)CC5)c4)cn3)cc2[nH]1 (stereo partly drawn) [Example 211, 5-(1-(3-(1-(2-(2,6-dioxopiperidin-3-yl)-1,3-dioxoisoindolin-4-yl)piperidin-4-yl)propyl)-1H-pyrazol-4-yl)-N-(2-((R)-1-methylpyrrolidin-2-yl)-1H-pyrrolo[3,2-c]pyridin-6-yl)picolinamide]
≤ 100 nM	A (Category A: A ≥ 75% degradation)	A (Category A: A ≥ 75% degradation)	A (Category A: A ≥ 75% degradation)	CN1CCC[C@@H]1c1cc2cnc(NC(=O)c3ccc(-c4cnn(CCCC5CCN(c6cccc7c6CN(C6CCC(=O)NC6=O)C7=O)CC5)c4)cc3F)cc2[nH]1 (stereo partly drawn) [Example 212, 4-(1-(3-(1-(2-(2,6-dioxopiperidin-3-yl)-1-oxoisoindolin-4-yl)piperidin-4-yl)propyl)-1H-pyrazol-4-yl)-2-fluoro-N-(2-((R)-1-methylpyrrolidin-2-yl)-1H-pyrrolo[3,2-c]pyridin-6-yl)benzamide]
